Source: patent US8188085B2, “Antifungal agents” (Merck Sharp & Dohme Corp., priority 2008, dated 2012)

These compounds were tested against glucan synthase (GS) prepared from Candida albicans MY1055 (Candida albicans, UniProt O13428) (assay: Glucan synthase inhibition (polymerization assay, 96-well)). Details: GS from C. albicans MY1055; 60 min incubation at 22° C.; read-out: Candida Albicans GS IC50 (converted).
Assay type: biochemical
In short: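 Partially purified glucan synthase from C. albicans MY1055 membranes incorporated 0.5 mM ³H-UDPG with 25 μM GTP-γ-S, HEPES pH 7.5, over 60 min at 22 °C. TCA-precipitated glucan was counted by scintillation. IC50 (ng/mL) came from sigmoidal fits of duplicate 3-fold dilution series.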

glucan synthase (GS) prepared from Candida albicans MY1055, sequence (O13428 1-1897): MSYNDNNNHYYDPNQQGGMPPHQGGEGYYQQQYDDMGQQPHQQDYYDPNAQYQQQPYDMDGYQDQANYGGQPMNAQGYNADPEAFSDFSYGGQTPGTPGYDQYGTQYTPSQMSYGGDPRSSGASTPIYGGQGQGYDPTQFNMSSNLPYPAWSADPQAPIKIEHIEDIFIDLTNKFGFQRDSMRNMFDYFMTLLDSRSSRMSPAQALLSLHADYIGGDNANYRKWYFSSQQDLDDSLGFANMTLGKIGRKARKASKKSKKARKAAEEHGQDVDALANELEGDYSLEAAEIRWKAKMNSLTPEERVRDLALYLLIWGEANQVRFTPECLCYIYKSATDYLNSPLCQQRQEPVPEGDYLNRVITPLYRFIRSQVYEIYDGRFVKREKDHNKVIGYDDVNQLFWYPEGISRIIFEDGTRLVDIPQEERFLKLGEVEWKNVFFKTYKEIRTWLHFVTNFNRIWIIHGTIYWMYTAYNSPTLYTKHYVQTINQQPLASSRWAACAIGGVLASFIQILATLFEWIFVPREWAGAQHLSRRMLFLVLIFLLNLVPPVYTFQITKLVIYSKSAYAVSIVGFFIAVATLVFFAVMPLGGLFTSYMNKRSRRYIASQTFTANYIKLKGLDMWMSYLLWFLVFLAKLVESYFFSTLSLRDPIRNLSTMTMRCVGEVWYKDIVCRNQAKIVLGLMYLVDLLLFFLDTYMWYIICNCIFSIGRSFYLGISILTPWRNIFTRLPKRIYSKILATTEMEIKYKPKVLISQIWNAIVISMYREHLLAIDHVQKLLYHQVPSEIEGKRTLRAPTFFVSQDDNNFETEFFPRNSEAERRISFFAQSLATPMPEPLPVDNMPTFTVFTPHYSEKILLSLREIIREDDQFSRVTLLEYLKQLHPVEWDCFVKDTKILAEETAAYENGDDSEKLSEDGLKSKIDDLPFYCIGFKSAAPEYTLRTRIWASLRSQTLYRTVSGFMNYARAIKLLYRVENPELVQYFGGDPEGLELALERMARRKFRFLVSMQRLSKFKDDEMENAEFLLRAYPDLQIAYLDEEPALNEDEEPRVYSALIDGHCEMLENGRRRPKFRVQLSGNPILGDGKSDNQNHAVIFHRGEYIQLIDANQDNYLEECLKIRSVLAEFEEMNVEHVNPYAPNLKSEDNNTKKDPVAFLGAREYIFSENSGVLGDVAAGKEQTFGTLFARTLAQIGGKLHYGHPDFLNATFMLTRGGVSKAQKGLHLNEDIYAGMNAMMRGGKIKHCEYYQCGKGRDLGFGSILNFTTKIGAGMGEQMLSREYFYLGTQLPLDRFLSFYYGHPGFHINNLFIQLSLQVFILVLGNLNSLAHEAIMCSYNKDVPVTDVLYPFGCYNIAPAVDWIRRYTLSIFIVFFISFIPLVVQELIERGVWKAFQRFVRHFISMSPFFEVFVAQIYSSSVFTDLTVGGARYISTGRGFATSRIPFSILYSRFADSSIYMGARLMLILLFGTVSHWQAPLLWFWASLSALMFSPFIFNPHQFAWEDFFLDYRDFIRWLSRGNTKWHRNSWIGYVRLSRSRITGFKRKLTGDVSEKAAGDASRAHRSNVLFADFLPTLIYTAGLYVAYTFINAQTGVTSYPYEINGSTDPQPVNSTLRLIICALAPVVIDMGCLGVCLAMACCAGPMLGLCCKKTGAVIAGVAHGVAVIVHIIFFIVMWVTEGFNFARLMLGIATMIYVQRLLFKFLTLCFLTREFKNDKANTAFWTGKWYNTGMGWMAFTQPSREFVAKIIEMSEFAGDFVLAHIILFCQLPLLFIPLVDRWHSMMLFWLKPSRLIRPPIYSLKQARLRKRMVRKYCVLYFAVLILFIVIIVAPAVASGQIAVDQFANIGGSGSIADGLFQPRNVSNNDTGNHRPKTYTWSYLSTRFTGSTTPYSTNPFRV

Structure (SMILES)	IC50 [nM]
C=C(C)c1ncnn1[C@@H]1C[C@@]23COC[C@](C)([C@@H]2CC[C@H]2C3=CC[C@@]3(C)[C@H](C(=O)O)[C@@](C)([C@H](C)C(C)C)CC[C@]23C)[C@H]1OC[C@](C)(N)C(C)C [Example 168, (1S,4aR,6aS,7R,8R,10aR,10bR,12aR,14R,15R)-15-[[(2R)-2-amino-2,3-dimethylbutyl]oxy]-8-[(1R)-1,2-dimethylpropyl]-14-[5-(1-methylethenyl)-1H-1,2,4-triazol-1-yl]-1,6,6a,7,8,9,10,10a,10b,11,12,12a-dodecahydro-1,6a,8,10a-tetramethyl-4H-1,4a-propano-2H-phenanthro[1,2-c]pyran-7-carboxylic acid]	4.42
CCCc1ncnn1[C@@H]1C[C@@]23COC[C@](C)([C@@H]2CC[C@H]2C3=CC[C@@]3(C)[C@H](C(=O)O)[C@@](C)([C@H](C)C(C)C)CC[C@]23C)[C@H]1OC[C@](C)(N)C(C)C [Example 169, (1S,4aR,6aS,7R,8R,10aR,10bR,12aR,14R,15R)-15-[[(2R)-2-amino-2,3-dimethylbutyl]oxy]-8-[(1R)-1,2-dimethylpropyl]-14-(5-propyl-1H-1,2,4-triazol-1-yl)-1,6,6a,7,8,9,10,10a,10b,11,12,12a-dodecahydro-1,6a,8,10a-tetramethyl-4H-1,4a-propano-2H-phenanthro[1,2-c]pyran-7-carboxylic acid]	4.41
CC(C)[C@@H](C)[C@@]1(C)CC[C@]2(C)[C@H]3CC[C@@H]4[C@@]5(COC[C@@]4(C)[C@@H](OC[C@](C)(N)C(C)(C)C)[C@H](n4ncnc4-c4ccc(CN)cc4)C5)C3=CC[C@@]2(C)[C@@H]1C(=O)O [Example 178, (1S,4aR,6aS,7R,8R,10aR,10bR,12aR,14R,15R)-14-[5-[4-(aminomethyl)phenyl]-1H-1,2,4-triazol-1-yl]-15-[[(2R)-2-amino-2,3,3-trimethylbutyl]oxy]-8-[(1R)-1,2-dimethylpropyl]-1,6,6a,7,8,9,10,10a,10b,11,12,12a-dodecahydro-1,6a,8,10a-tetramethyl-4H-1,4a-propano-2H-phenanthro[1,2-c]pyran-7-carboxylic acid]	1.06
CC(C)[C@@H](C)[C@@]1(C)CC[C@]2(C)[C@H]3CC[C@@H]4[C@@]5(COC[C@@]4(C)[C@@H](OC[C@](C)(N)C(C)C)[C@H](n4ncnc4-c4cncs4)C5)C3=CC[C@@]2(C)[C@@H]1C(=O)O [Example 193, (1S,4aR,6aS,7R,8R,10aR,10bR,12aR,14R,15R)-15-[[(2R)-2-amino-2,3-dimethylbutyl]oxy]-8-[(1R)-1,2-dimethylpropyl]-14-[5-(5-thiazolyl)-1H-1,2,4-triazol-1-yl]-1,6,6a,7,8,9,10,10a,10b,11,12,12a-dodecahydro-1,6a,8,10a-tetramethyl-4H-1,4a-propano-2H-phenanthro[1,2-c]pyran-7-carboxylic acid]	4.15
CC(C)[C@@H](C)[C@@]1(C)CC[C@]2(C)[C@H]3CC[C@@H]4[C@@]5(COC[C@@]4(C)[C@@H](OC[C@](C)(N)C(C)C)[C@H](n4ncnc4-c4ccc(O)nc4)C5)C3=CC[C@@]2(C)[C@@H]1C(=O)O [Example 199, (1S,4aR,6aS,7R,8R,10aR,10bR,12aR,14R,15R)-15-[[(2R)-2-amino-2,3-dimethylbutyl]oxy]-8-[(1R)-1,2-dimethylpropyl]-14-[5-(6-hydroxy-3-pyridinyl)-1H-1,2,4-triazol-1-yl]-1,6,6a,7,8,9,10,10a,10b,11,12,12a-dodecahydro-1,6a,8,10a-tetramethyl-4H-1,4a-propano-2H-phenanthro[1,2-c]pyran-7-carboxylic acid]	0.546
CC(C)[C@@H](C)[C@@]1(C)CC[C@]2(C)[C@H]3CC[C@@H]4[C@@]5(COC[C@@]4(C)[C@@H](OC[C@](C)(N)C(C)C)[C@H](n4ncnc4-c4ccc(N)cc4)C5)C3=CC[C@@]2(C)[C@@H]1C(=O)O [Example 200, (1S,4aR,6aS,7R,8R,10aR,10bR,12aR,14R,15R)-15-[[(2R)-2-amino-2,3-dimethylbutyl]oxy]-14-[5-(4-aminophenyl)-1H-1,2,4-triazol-1-yl]-8-[(1R)-1,2-dimethylpropyl]-1,6,6a,7,8,9,10,10a,10b,11,12,12a-dodecahydro-1,6a,8,10a-tetramethyl-4H-1,4a-propano-2H-phenanthro[1,2-c]pyran-7-carboxylic acid]	8.22
CC(C)[C@@H](C)[C@@]1(C)CC[C@]2(C)[C@H]3CC[C@@H]4[C@@]5(COC[C@@]4(C)[C@@H](OC[C@](C)(N)C(C)(C)C)[C@H](n4ncnc4-c4ccnc(N)c4)C5)C3=CC[C@@]2(C)[C@@H]1C(=O)O [Example 214, (1S,4aR,6aS,7R,8R,10aR,10bR,12aR,14R,15R)-14-[5-(2-amino-4-pyridinyl)-1H-1,2,4-triazol-1-yl]-15-[[(2R)-2-amino-2,3,3-trimethylbutyl]oxy]-8-[(1R)-1,2-dimethylpropyl]-1,6,6a,7,8,9,10,10a,10b,11,12,12a-dodecahydro-1,6a,8,10a-tetramethyl-4H-1,4a-propano-2H-phenanthro[1,2-c]pyran-7-carboxylic acid]	1.34
CC(C)[C@@H](C)[C@@]1(C)CC[C@]2(C)[C@H]3CC[C@@H]4[C@@]5(COC[C@@]4(C)[C@@H](OC[C@](C)(N)C(C)(C)C)[C@H](n4ncnc4-c4ccc(O)nc4)C5)C3=CC[C@@]2(C)[C@@H]1C(=O)O [Example 218, (1S,4aR,6aS,7R,8R,10aR,10bR,12aR,14R,15R)-15-[[(2R)-2-amino-2,3,3-trimethylbutyl]oxy]-8-[(1R)-1,2-dimethylpropyl]-14-[5-(6-hydroxy-3-pyridinyl)-1H-1,2,4-triazol-1-yl]-1,6,6a,7,8,9,10,10a,10b,11,12,12a-dodecahydro-1,6a,8,10a-tetramethyl-4H-1,4a-propano-2H-phenanthro[1,2-c]pyran-7-carboxylic acid]	1.07
CC(C)[C@@H](C)[C@@]1(C)CC[C@]2(C)[C@H]3CC[C@@H]4[C@@]5(COC[C@@]4(C)[C@@H](OC[C@](C)(N)C(C)(C)C)[C@H](n4ncnc4-c4ccc(C(N)=O)nc4)C5)C3=CC[C@@]2(C)[C@@H]1C(=O)O [Example 221, (1S,4aR,6aS,7R,8R,10aR,10bR,12aR,14R,15R)-14-[5-[6-(aminocarbonyl)-3-pyridinyl]-1H-1,2,4-triazol-1-yl]-15-[[(2R)-2-amino-2,3,3-trimethylbutyl]oxy]-8-[(1R)-1,2-dimethylpropyl]-1,6,6a,7,8,9,10,10a,10b,11,12,12a-dodecahydro-1,6a,8,10a-tetramethyl-4H-1,4a-propano-2H-phenanthro[1,2-c]pyran-7-carboxylic acid]	3.88
CC(C)[C@@H](C)[C@@]1(C)CC[C@]2(C)[C@H]3CC[C@@H]4[C@@]5(COC[C@@]4(C)[C@@H](OC[C@](C)(N)C(C)(C)C)[C@H](n4ncnc4-c4cccc(C(N)=O)c4)C5)C3=CC[C@@]2(C)[C@@H]1C(=O)O [Example 228, (1S,4aR,6aS,7R,8R,10aR,10bR,12aR,14R,15R)-14-[5-[3-(aminocarbonyl)phenyl]-1H-1,2,4-triazol-1-yl]-15-[[(2R)-2-amino-2,3,3-trimethylbutyl]oxy]-8-[(1R)-1,2-dimethylpropyl]-1,6,6a,7,8,9,10,10a,10b,11,12,12a-dodecahydro-1,6a,8,10a-tetramethyl-4H-1,4a-propano-2H-phenanthro[1,2-c]pyran-7-carboxylic acid]	7.77
